These results are taken from patent US20170281727A1, “THERAPEUTIC OR PROPHYLACTIC AGENT FOR ITCHING SKIN DISEASES” (Toray Industries, Inc., priority 2014, published 2017).

Type in all cases: cell-based, human
The subject of one test is hBD-2. Put plainly: mRNA expression analysis of hBD-2 by real-time PCR in NHEKs. The conditions noted are these: LL-37 20 μg/ml, 48 hours after stimulation, vs control without LL-37. How it is done:
(§1) Normal human epidermal keratinocytes (NHEKs) were cultured according to a protocol provided by Lonza. NHEKs were cultured in a 12-well tissue culture plate and, in the growth phase (80% confluence), LL-37 (20 μg/ml) was added alone, or LL-37 (20 μg/ml) and the peptide SLIGRL (SEQ ID NO:2, 100 μM) were added, to the cells. The peptide SLIGRL is a peptide frequently used as a PAR2 agonist, and it is known that activation of PAR2 induces promotion of expression of TSLP in keratinocytes (Wilson et al, Cell, 2013: 155, 285-295). Total RNA was extracted 48 hours after the addition of LL-37, and mRNA expression analysis was carried out by real-time PCR. The culture supernatant was collected, and subjected to analysis of the protein expression level by ELISA. • (3) Analysis of Expression of mRNA of Each Gene
(§2) The transcription level of each gene was analyzed by quantitative real-time PCR. […] According to the manufacturer's instructions, quantitative real-time PCR was carried out using an Applied Biosystems 7900HT Fast Real-time PCR system (Applied Biosystems) with SYBR Premix Ex Taq (Takara). […] The amount of each mRNA was normalized against the amount of mRNA of RPS18, and finally expressed as the ratio to the mRNA in an untreated control.

A further test has as its system hBD-1. Put plainly: mRNA expression analysis of hBD-1 by real-time PCR in NHEKs. The conditions noted are these: LL-37 20 μg/ml, 48 hours after stimulation, vs control without LL-37. How it is done:
as §1, §2
On the technique in general: In qPCR the cycle at which signal appears reflects the starting amount.

Another test relates to KAL1. Put plainly: mRNA expression analysis of KAL1 by real-time PCR in NHEKs. The conditions noted are these: LL-37 20 μg/ml, 48 hours after stimulation, vs control without LL-37. How it is done:
as §1, §2

Another test concerns TSLP. Kind of test: mRNA expression analysis of TSLP by real-time PCR in NHEKs. How it is done: as §1, §2
A further test deals with Artemin. Put plainly: mRNA expression analysis of Artemin by real-time PCR in NHEKs. The conditions noted are these: LL-37 20 μg/ml, 48 hours after stimulation, vs control without LL-37. How it is done:
as §1, §2

The subject of test [1] is Sema3A. Kind of test: Sema3A protein in NHEK culture supernatant by ELISA. The conditions noted are these: NHEKs, LL-37 20 μg/ml, 48 hours after stimulation, vs control without LL-37. How it is done: as §1
The expression level of each protein was analyzed by ELISA. The amount of Sema3A in the culture supernatant was measured using an Enzyme-linked Immunosorbent Assay Kit (USCN Life Science) according to the manufacturer's instructions.

The next test deals with NGF. Kind of test: mRNA expression analysis of NGF by real-time PCR in NHEKs. The conditions noted are these: LL-37 20 μg/ml, 48 hours after stimulation, vs control without LL-37. How it is done: as §1, §2
The subject of test [2] is Sema3A. Put plainly: mRNA expression analysis of Sema3A by real-time PCR in NHEKs. The conditions noted are these: LL-37 20 μg/ml, 48 hours after stimulation, vs control without LL-37. How it is done: as §1, §2

Entries after “also recorded” stand apart in the source; their conditions may differ.

For the substance “LL-37: human cathelicidin antimicrobial peptide, LLGDFFRKSKEKIGKEFKRIVQRIKDFLRNLVPRTES, SEQ ID NO:1 (listed as Homo sapiens)”, in the test with hBD-2, the “mRNA expression of hBD-2” value is listed as “Promotion; also recorded: increases”. Moreover, the “mRNA expression of hBD-1” value in the test on hBD-1 was “Promotion; also recorded: increases”. Besides, the “mRNA expression of KAL1” value with KAL1 is given as “promoted; also recorded: increases”. In the test with TSLP (LL-37 20 μg/ml alone, 48 hours after stimulation, vs control without LL-37), the “mRNA expression of TSLP” value is given as “Suppression; also recorded: decreases”. In addition, in the test with TSLP (LL-37 20 μg/ml plus SLIGRL 100 μM (PAR2 agonist), 48 hours), the “mRNA expression of TSLP induced by SLIGRL” value is listed as “suppression; also recorded: decreased”. In addition, in the test on Artemin, the “mRNA expression of Artemin” value is “suppressed; also recorded: decreases”. Besides, in the test with Sema3A [1], the “amount of Sema3A protein in the culture supernatant” value is reported as “increase”. In the test with NGF, the “mRNA expression of NGF” value is given as “suppressed; also recorded: decreases”. The “mRNA expression of Sema3A” value with Sema3A [2] is listed as “promoted; also recorded: increases”.
